Experimental findings from ChEMBL document CHEMBL1201862, “PubChem BioAssay data set” (2004) are described below.

One may read the GI50 as the concentration at which growth is held to half of that of the control.

Assay in all cases: DTP human tumour cell line panel, 48 h
Experiment [1] deals with SK-MEL-5.
Experiment [2] has as its system RXF 393.
For experiment [3], the system named is A549.
The subject of experiment [4] is SF-268.
Experiment [5] has as its system ACHN.
Experiment [6] relates to IGROV-1.
Experiment [7] concerns OVCAR-4.
The subject of experiment [8] is HCC 2998.
For experiment [9], the system named is HL-60.
Experiment [10] concerns M14.
The subject of experiment [11] is SK-OV-3.
The test system of experiment [12] is K562.
Experiment [13] deals with UACC-62.
Experiment [14] deals with CAKI-1.
Experiment [15] concerns 786-0.
Experiment [16] has as its system HCT-116.
Experiment [17] deals with OVCAR-8.
The test system of experiment [18] is HCT-15.

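Each compound was tested at five concentrations against cells in 96-well plates for 48 hours. GI50 = concentration required for 50% inhibition of growth.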 Active and inactive are the calls of the source. Cut-off read from the data, not from the text of the source: active = GI50 up to about 1.1 µM and inactive = higher.

Turning to `CC(Oc1ccc2c(-c3ccccc3)cc(=O)oc2c1)C(=O)O` (configuration not stated), the GI50 in experiment [1], in experiment [2], in [3], in [4], in experiment [5] and in experiment [6] was > 100 µM (inactive) each time. For the same molecule, the GI50 in experiment [7], in experiment [8], in experiment [9], in [10], in experiment [11] and in experiment [12] was > 100 µM (inactive) in each case. The GI50 in [13], in experiment [14], in experiment [15], in experiment [16] and in experiment [17] was > 100 µM (inactive) throughout.

Consider `COc1cc(C)c(O)c(C(=O)O)c1`, for which the GI50 in experiment [1] was > 100 µM (inactive); in experiment [2], > 100 µM (inactive); in experiment [3], > 100 µM (inactive); in [18], greater than 100 µM; in [4], > 100 µM (inactive); in experiment [5] it was > 100 µM (inactive). For the same molecule, the GI50 in experiment [6], in experiment [7], in experiment [8], in [10], in experiment [11] and in [12] was > 100 µM (inactive) each time. The GI50 in experiment [13], in experiment [14], in experiment [15], in experiment [16] and in experiment [17] was > 100 µM (inactive) each time.

Regarding `Cc1nc(N)sc1C(=O)/C=C\c1ccc2c(c1)OCO2`, the GI50 in experiment [1] is > 100 µM (inactive); in experiment [2], > 100 µM (inactive); in experiment [3] it was > 100 µM (inactive); in experiment [18], greater than 100 µM; in [4] it was > 100 µM (inactive); in [5] it was > 100 µM (inactive). Also, the GI50 in [6], in experiment [7], in [8], in experiment [9], in experiment [10] and in experiment [11] was > 100 µM (inactive) throughout. The GI50 in experiment [12], in experiment [13], in experiment [14], in experiment [15], in experiment [16] and in [17] was > 100 µM (inactive) throughout.

Regarding `C=CC1(NS(=O)(=O)c2ccc(C)cc2)CCC(C(C)(C)C)CC1` (configuration not stated), the GI50 in experiment [1] is > 100 µM (inactive); in experiment [2], 8.97 µM (inactive); in experiment [3], 80.9 µM (inactive); in experiment [18], greater than 100 µM; in experiment [4] it was 27 µM (inactive); in [5], 65.3 µM (inactive). The GI50 is 76.2 µM (inactive) in experiment [6]; 91.6 µM (inactive) in [7]; > 100 µM (inactive) in experiment [8]; 70.1 µM (inactive) in experiment [9]; 98.6 µM (inactive) in [10]; 34.4 µM (inactive) in experiment [11]. Further, the GI50 is > 100 µM (inactive) in experiment [12]; 28.5 µM (inactive) in [13]; > 100 µM (inactive) in [14]; 46.8 µM (inactive) in experiment [15]; > 100 µM (inactive) in experiment [16]; 52.8 µM (inactive) in [17].

Consider `NC(=O)CC(N/C=C1/N=C(c2ccccc2)OC1=O)C(=O)O` (configuration not stated), for which the GI50 was > 100 µM (inactive) in experiment [1]; > 100 µM (inactive) in experiment [2]; > 100 µM (inactive) in [3]; greater than 100 µM in experiment [18]; > 100 µM (inactive) in experiment [4]; > 100 µM (inactive) in experiment [5]. In addition, the GI50 in experiment [6], in [7], in [8], in experiment [9], in experiment [10] and in experiment [11] was > 100 µM (inactive) in each case. For the same molecule, the GI50 in [12], in experiment [13], in experiment [14], in [15], in [16] and in experiment [17] was > 100 µM (inactive) throughout.

With `CN(CCCCN)c1ccc2c(=O)[nH][nH]c(=O)c2c1`, the GI50 was > 10 µM (inactive) in [1]; > 100 µM (inactive) in [2]; > 100 µM (inactive) in experiment [3]; greater than 100 µM in experiment [18]; 13 µM (inactive) in [4]; > 100 µM (inactive) in [5]. Moreover, the GI50 in [6] was > 44.9 µM (inactive); in experiment [7], > 100 µM (inactive); in [8], > 100 µM (inactive); in [9], > 100 µM (inactive); in experiment [10], 13.5 µM (inactive); in experiment [11] it was > 100 µM (inactive). For the same molecule, the GI50 in experiment [12] is > 100 µM (inactive); in experiment [13] it was > 41.8 µM (inactive); in [14], > 100 µM (inactive); in experiment [15] it was > 100 µM (inactive); in [16], > 100 µM (inactive); in experiment [17] it was > 10 µM (inactive).

Turning to `COc1cccc2c1C(=O)c1c(O)c3c(c(O)c1C2=O)C[C@@](O)(C(C)=O)C[C@@H]3OC1CC([N+]([O-])(Cc2ccccc2)Cc2ccccc2)C(O)C(C)O1` (some centres not stated), the GI50 in experiment [1] is 1.35 µM (inactive); in experiment [2], 1.21 µM (inactive); in experiment [3] it was 1.29 µM (inactive); in [18], 1.32 µM; in experiment [5], 1.22 µM (inactive); in experiment [6], 1.36 µM (inactive). Further, the GI50 in experiment [7] is 1.77 µM (inactive); in experiment [8], 1.62 µM (inactive); in experiment [9], 1.42 µM (inactive); in experiment [10], 1.69 µM (inactive); in experiment [11], 4.2 µM (inactive); in experiment [12] it was 1.7 µM (inactive). The GI50 in experiment [13] was 1.47 µM (inactive); in [14], 1.14 µM (inactive); in experiment [15] it was 1.44 µM (inactive); in experiment [17], 0.774 µM (active).

Turning to `CC1(C)C(c2ccccc2)=NN(O)c2ccccc21`, the GI50 in experiment [1] is > 100 µM (inactive); in experiment [2], > 100 µM (inactive); in experiment [3], > 100 µM (inactive); in experiment [18], greater than 100 µM; in [4], > 100 µM (inactive); in experiment [6] it was > 100 µM (inactive). Further, the GI50 in experiment [7], in experiment [8], in [9], in experiment [10], in [11] and in experiment [12] was > 100 µM (inactive) in each case. For the same molecule, the GI50 in experiment [13], in [14], in experiment [15], in [16] and in experiment [17] was > 100 µM (inactive) each time.

`Cc1ccc(/C=C/C(=O)CCN(C)C)cc1`: the GI50 in [1] was 19.4 µM (inactive); in experiment [2], 23.1 µM (inactive); in experiment [3] it was 20.7 µM (inactive); in [18], 15.5 µM; in experiment [4] it was 24.9 µM (inactive); in experiment [5], 18.5 µM (inactive). Further, the GI50 in [6] is 20.8 µM (inactive); in experiment [7], 15.2 µM (inactive); in [8], 17.7 µM (inactive); in experiment [9], 21.1 µM (inactive); in experiment [10], 21.5 µM (inactive); in experiment [11], 45 µM (inactive). Further, the GI50 in experiment [12] was 32 µM (inactive); in experiment [13] it was 14.6 µM (inactive); in experiment [14] it was 13.9 µM (inactive); in [15] it was 17.9 µM (inactive); in experiment [16], 18.9 µM (inactive); in experiment [17], 15.9 µM (inactive).

Regarding `COC(=O)C(C#N)=C1c2ccccc2Oc2ccccc21`, the GI50 in experiment [1] was 33.9 µM (inactive); in [2], 38.5 µM (inactive); in [3] it was > 100 µM (inactive); in experiment [18], greater than 100 µM; in experiment [4], 63 µM (inactive); in experiment [5] it was 66.7 µM (inactive). Moreover, the GI50 in experiment [6] was 64.3 µM (inactive); in experiment [7], 43.8 µM (inactive); in [8] it was 98.9 µM (inactive); in experiment [9] it was 20.8 µM (inactive); in [10], 53.8 µM (inactive); in [11], 42.1 µM (inactive). Moreover, the GI50 in [12] was 31.5 µM (inactive); in [13], 35.7 µM (inactive); in experiment [14] it was > 100 µM (inactive); in experiment [15] it was 63.7 µM (inactive); in experiment [17] it was 43.4 µM (inactive).

Turning to `COc1cc2c[n+](C)c3c4cc(OC)c(OC)cc4c(OCCCCCCCCOc4cc5c6cc(OC)c(OC)cc6c[n+](C)c5c5cc(OC)c(OC)cc45)cc3c2cc1OC`, the GI50 in experiment [1] was 47.8 µM (inactive); in experiment [2], > 100 µM (inactive); in [3], > 100 µM (inactive); in experiment [18], greater than 100 µM; in [4] it was > 100 µM (inactive); in experiment [5] it was > 100 µM (inactive). In addition, the GI50 in experiment [6] is > 100 µM (inactive); in experiment [7] it was > 100 µM (inactive); in experiment [8], > 100 µM (inactive); in experiment [9] it was 2.23 µM (inactive); in experiment [10], > 100 µM (inactive); in experiment [11] it was > 100 µM (inactive). The GI50 in experiment [12] is 8.71 µM (inactive); in experiment [13] it was > 100 µM (inactive); in [14], > 100 µM (inactive); in [15] it was 30.6 µM (inactive); in experiment [16], > 100 µM (inactive); in [17], > 100 µM (inactive).
